Experiments:
EGFR Del Ba/F3 cells = EGFR Del Ba/F3 cells (Homo sapiens, UniProt P00533, cells depend on it, form not given); test: Ba/F3 cell growth inhibition (MTS assay), EGFR Del; format: cell-based; conditions: for EGFR activity (% Control, 100 nM drug) Del: Table F; for IC50: Del, read-out: EGFR Ba/F3 cells IC 50 (nM) Assay 1 Del
Source text: (§1) The specific cDNAs encoding the oncogenic alterations (EGFR: Del 19, L858R, L718Q, L844V, Del/T790M, L858R/T790M, Del 19/L718Q, Del 19/L844V, Del 19/T790M/L718Q and L858R/T790M/L718Q; FGFR: TEL-FGFR1, TEL-FGFR2, TEL-FGFR1 V561M, TEL-FGFR2 V561M; ALK: EML4-ALK; ROS1: CD74-ROS1) were cloned into the pDNA-Dual (BD Biosciences) vector using standard molecular biology techniques. Mutations were introduced using site-directed mutagenesis (Agilent) with mutant specific primers according to the manufacturer's instructions. All constructs were confirmed by DNA sequencing. The constructs were introduced into Ba/F3 cells using retroviral infection. Polyclonal cell lines were established by puromycin selection and subsequently cultured in the absence of interleukin-3 (IL-3). Uninfected Ba/F3 cells or cell lines expressing green fluorescent protein (GFP) were used as controls.
(§2) Growth and inhibition of growth was assessed by MTS assay. This assay, a colorimetric method for determining the number of viable cells, is based on the bioreduction of 3-(4,5-dimethylthiazol-2-yl)-5-(3-carboxymethoxyphenyl)-2-(4-sulfophenyl)-2H-tetrazolium (MTS) by cells to a formazan product that is soluble in cell culture medium, can be detected spectrophotometrically and was performed according to the manufacturer's recommended conditions. Ba/F3 cells were exposed to treatment for 72 hours and the number of cells used per experiment determined empirically to assure linear growth kinetics over that time period. All experimental points were set up in six to twelve wells and all experiments were repeated at least three times. […] The curves were fitted using a non-linear regression model with a sigmoidal dose response.

[1] = molecular target: EGFR L858R/T790M Ba/F3 cells (Homo sapiens (Human), UniProt P00533, L858R/T790M); test: Ba/F3 cell growth inhibition (MTS assay), EGFR L858R/T790M; format: cell-based; conditions: for EGFR activity (% Control, 100 nM drug) L858R/T790M: Table F; for IC50: Assay 1, L858R/T790M, read-out: EGFR Ba/F3 cells IC 50 (nM) Assay 1 L858R/T790M
Source text: as §1, §2

EGFR L858R Ba/F3 cells = EGFR L858R Ba/F3 cells (Homo sapiens (Human), UniProt P00533, L858R); test: Ba/F3 cell growth inhibition (MTS assay), EGFR L858R; format: cell-based; conditions: for EGFR activity (% Control, 100 nM drug) L858R: Table F; for IC50: L858R, read-out: EGFR Ba/F3 cells IC 50 (nM) Assay 1 L858R
Source text: as §1, §2

[2] = molecular target: EGFR Del/T790M Ba/F3 cells (Homo sapiens, UniProt P00533, T790M, cells depend on it, form not given); test: Ba/F3 cell growth inhibition (MTS assay), EGFR Del/T790M; format: cell-based; conditions: for EGFR activity (% Control, 100 nM drug) DEL/T790M: Table F; for IC50: Del/T790M, read-out: EGFR Ba/F3 cells IC 50 (nM) Assay 1 Del/T790M
Source text: as §1, §2

[3] = molecular target: EGFR L718Q/L858R Ba/F3 cells (Homo sapiens (Human), UniProt P00533, L718Q/L858R); test: Ba/F3 cell growth inhibition (MTS assay), EGFR L858R/L718Q; format: cell-based; conditions: for EGFR activity (% Control, 100 nM drug) L858R/L718Q: Table F
[4] = molecular target: EGFR L858R/T790M/L718Q Ba/F3 cells (Homo sapiens (Human), UniProt P00533, L718Q/L858R/T790M); test: Ba/F3 cell growth inhibition (MTS assay), EGFR L858R/T790M/L718Q; format: cell-based; conditions: for EGFR activity (% Control, 100 nM drug) L858R/T790M/L718Q: Table F; for IC50: Assay 1, T/L/L718Q, read-out: EGFR Ba/F3 cells IC 50 (nM) Assay 1 T/L/L718Q
Source text: as §1, §2

[5] = molecular target: EGFR Wild type vIII Ba/F3 cells (Homo sapiens (Human), UniProt P00533, DELINS30-297G); test: Ba/F3 cell growth inhibition (MTS assay), EGFR Wild type vIII; format: cell-based; conditions: Assay 1, read-out: EGFR Ba/F3 cells IC 50 (nM) Assay 1 Wild type vIII
[6] = Microsome Stability Mouse; format: in vitro ADME; conditions: mouse microsomes
[7] = molecular target: EGFR Del/T790M/L718Q Ba/F3 cells (Homo sapiens, UniProt P00533, L718Q/T790M, cells depend on it, form not given); format: cell-based; conditions: 1.0 μM drug
Source text: as §1, §2

KIF5B/Ret_V804M = test: Ba/F3 cell growth inhibition (MTS assay), KIF5B/Ret_V804M; format: cell-based
Method: as §2

IC50 (EGFR Del Ba/F3 cells; Assay 1) | IC50 [1] | IC50 (EGFR L858R Ba/F3 cells; Assay 1) | IC50 ([2]; Assay 1) | IC50 [4] | Structure (SMILES) | EGFR activity (% Control, 100 nM drug) Del (EGFR Del Ba/F3 cells) | EGFR activity (% Control, 100 nM drug) L858R/T790M [1] | EGFR activity (% Control, 100 nM drug) L858R (EGFR L858R Ba/F3 cells) | EGFR activity (% Control, 100 nM drug) DEL/T790M [2] | EGFR activity (% Control, 100 nM drug) L858R/L718Q [3] | EGFR activity (% Control, 100 nM drug) L858R/T790M/L718Q [4] | further results
 |  |  |  |  | COc1ccc(NC(=O)/C=C/CN(C)C)cc1Nc1ncc2c(n1)N(C)C(=O)N(c1ccccc1)C2 [Compound 7A, (E)-4-(dimethylamino)-N-(4-methoxy-3-((8-methyl-7-oxo-6-phenyl-5,6,7,8-tetrahydropyrimido[4,5-d]pyrimidin-2-yl)amino)phenyl)but-2-enamide] | 35 % Control | 102 % Control | 5 % Control | 94 % Control | 96 % Control | 106 % Control | 
 |  |  |  |  | C=CC(=O)Nc1ccc(OC)c(Nc2cc(N(C)C(=O)Nc3ccccc3)ncn2)c1 [Compound 12A] | 0 % Control | 48 % Control | 1 % Control | 117 % Control | 47 % Control | 84 % Control | 
23.9 nM | 41.8 nM | 2.66 nM | 68.2 nM | 2240 nM | C=CC(=O)Nc1cccc(N(C(=O)NCc2ccccc2)c2cc(Nc3ccc(N4CCN(C)CC4)cc3OC)nc(Cl)n2)c1 [Compound 78A] |  |  |  |  |  |  | IC50 [5]: 19.9 nM
19.7 nM | 20 nM | 0.51 nM | 60.4 nM | 312 nM | C=CC(=O)Nc1cccc(N(C(=O)N[C@@H](C)c2ccccc2)c2cc(Nc3ccc(N4CCN(C)CC4)cc3OC)ncn2)c1 [Compound 34A] |  |  |  |  |  |  | IC50 [5]: 10.1 nM; Microsome Stability Mouse min [6]: 9.4 min
 |  |  |  |  | C=CC(=O)Nc1cccc(N(C(=O)Nc2ccccc2)c2cc(NC)ncn2)c1 [Compound 14A] | 24 % Control | 75 % Control | 1 % Control | 98 % Control | 76 % Control | 87 % Control | 
 |  |  |  |  | C=CC(=O)Nc1ccc(OC)c(N(C(=O)Nc2c(C)cccc2C)c2cc(Nc3ccc(N4CCN(CC)CC4)cc3)ncn2)c1 [Compound 8A] |  |  |  |  |  |  | EGFR activity (% Control, 1.0 μM drug) Assay 1 Del (EGFR Del Ba/F3 cells; 1.0 μM drug, Assay 1): 3 % Control; EGFR activity (% Control, 1.0 μM drug) Assay 2 Del (EGFR Del Ba/F3 cells; 1.0 μM drug, Assay 2): 72 % Control; EGFR activity (% Control, 1.0 μM drug) Assay 1 Del/T790M/L718Q ([7]; Assay 1): 113 % Control; EGFR activity (% Control, 1.0 μM drug) Assay 2 Del/T790M/L718Q ([7]; Assay 2): 93 % Control; EGFR activity (% Control, 1.0 μM drug) Assay 1 L858R (EGFR L858R Ba/F3 cells; 1.0 μM drug, Assay 1): 2 % Control; EGFR activity (% Control, 1.0 μM drug) Assay 2 L858R (EGFR L858R Ba/F3 cells; 1.0 μM drug, Assay 2): 10 % Control; EGFR activity (% Control, 1.0 μM drug) Assay 1 Del/T790M ([2]; 1.0 μM drug, Assay 1): 1 % Control; EGFR activity (% Control, 1.0 μM drug) Assay 2 Del/T790M ([2]; 1.0 μM drug, Assay 2): 100 % Control; EGFR activity (% Control, 1.0 μM drug) Assay 1 KIF5B/Ret_V804M (KIF5B/Ret_V804M): 108 % Control

Structure (SMILES) | IC50 (EGFR Del Ba/F3 cells; Assay 1) | IC50 [1] | IC50 (EGFR L858R Ba/F3 cells; Assay 1) | IC50 ([2]; Assay 1) | IC50 [4] | EGFR activity (% Control, 100 nM drug) Del (EGFR Del Ba/F3 cells) | EGFR activity (% Control, 100 nM drug) L858R/T790M [1] | EGFR activity (% Control, 100 nM drug) L858R (EGFR L858R Ba/F3 cells) | EGFR activity (% Control, 100 nM drug) DEL/T790M [2] | EGFR activity (% Control, 100 nM drug) L858R/L718Q [3] | EGFR activity (% Control, 100 nM drug) L858R/T790M/L718Q [4] | further results
C=CC(=O)Nc1ccc(OC)c(Nc2cc(N(C)C(=O)Nc3ccccc3)ncn2)c1 [Compound 74A] | 5.16 nM | 215 nM | 0.572 nM | 278 nM | 780 nM |  |  |  |  |  |  | IC50 ([3]; Assay 1, L718Q/L858R, read-out: EGFR Ba/F3 cells IC 50 (nM) Assay 1 L718Q/L858R): 243 nM

Reference: patent US10906878B2, “Kinase inhibitors for the treatment of disease” (Dana-Farber Cancer Institute, Inc., priority 2013, dated 2021)
